# Data taken from patent publication US20230085307A1, “PYRIDAZINONE COMPOUND AND HERBICIDE” (NISSAN CHEMICAL CORPORATION, priority 2019, published 2023).
# Assays:
# [1] = system: wild oat; test: Test Example 4: herbicidal effect by soil treatment (Table 19, symbol I); format: in vivo, wild oat (Avena fatua)
# How it was run: (§1)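 Three weeks of greenhouse growth at 25° C. to 30° C. followed a uniform surface spray of water-diluted emulsion at a predetermined herbicide amount. Seeds had been sown beforehand under about 1.5 cm of sterilized diluvial soil. Grading followed criteria set out in an earlier test.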
# [2] = system: windgrass; test: Test Example 4: herbicidal effect by soil treatment (Table 19, symbol L); format: in vivo, windgrass (Apera spica-venti)
# How it was run: as §1
# [3] = system: persian speedwell; test: Test Example 4: herbicidal effect by soil treatment (Table 19, symbol R); format: in vivo, Persian speedwell (Veronica persica)
# How it was run: as §1
# [4] = system: velvetleaf; test: Test Example 4: herbicidal effect by soil treatment (Table 19, symbol M); format: in vivo, velvetleaf (Abutilon theophrasti)
# How it was run: as §1
# [5] = system: persian speedwell; test: Test Example 5: herbicidal effect by foliage application, plastic box (Table 20, symbol R); format: in vivo, Persian speedwell (Veronica persica); details: foliage application
# How it was run: (§2)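 Plants sown in sterilized diluvial soil and grown 14 days in a greenhouse at 25° C to 30° C, then sprayed on the foliage with the compound's emulsion diluted in water to a predetermined herbicide amount. Injury to weeds and crops scored three weeks after application on a visual rating scale.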
# [6] = system: barnyard grass; test: Test Example 3: herbicidal effect by foliage application, Wagner pot (Table 18, symbol H); format: in vivo, barnyard grass (Echinochloa crus-galli)
# How it was run: (§3)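 Plants were sown in alluvial soil held under 0.1–0.5 cm standing water and grown 14 days in a greenhouse at 25–30 °C. An emulsifiable formulation, water-diluted to the set dose, was then sprayed onto the foliage, and effects were scored three weeks later using previously defined criteria.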
# [7] = system: redroot pigweed; test: Test Example 5: herbicidal effect by foliage application, plastic box (Table 20, symbol N); format: in vivo, redroot pigweed (Amaranthus retroflexus); details: foliage application
# How it was run: as §2
# [8] = system: late watergrass; test: Test Example 1: herbicidal activity, application before weed generation under submerged conditions (Table 16, symbol A); format: in vivo, late watergrass (Echinochloa oryzicola)
# How it was run: (§4)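 Alluvial soil was flooded to 4 cm depth, weed seeds were sown mixed and 2.5-leaf rice seedlings were transplanted. On sowing day, the compound's emulsion, diluted in water to a set dose, was applied to the water surface. Plants grew at 25–30 °C and were scored 0–5 after three weeks.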
# [9] = system: rice flat sedge; test: Test Example 3: herbicidal effect by foliage application, Wagner pot (Table 18, symbol E); format: in vivo, rice flat sedge (Cyperus iria)
# How it was run: as §3
# [10] = system: green foxtail; test: Test Example 5: herbicidal effect by foliage application, plastic box (Table 20, symbol G); format: in vivo, green foxtail (Setaria viridis); details: foliage application
# How it was run: as §2
# [11] = system: southern crabgrass; test: Test Example 4: herbicidal effect by soil treatment (Table 19, symbol F); format: in vivo, southern crabgrass (Digitaria ciliaris)
# How it was run: as §1
# [12] = system: lambsquarters; test: Test Example 4: herbicidal effect by soil treatment (Table 19, symbol O); format: in vivo, lambsquarters (Chenopodium album)
# How it was run: as §1
# [13] = system: Italian ryegrass; test: Test Example 5: herbicidal effect by foliage application, plastic box (Table 20, symbol K); format: in vivo, Italian ryegrass (Lolium multiflorum); details: foliage application
# How it was run: as §2
# [14] = system: velvetleaf; test: Test Example 5: herbicidal effect by foliage application, plastic box (Table 20, symbol M); format: in vivo, velvetleaf (Abutilon theophrasti); details: foliage application
# How it was run: as §2
# [15] = system: green foxtail; test: Test Example 4: herbicidal effect by soil treatment (Table 19, symbol G); format: in vivo, green foxtail (Setaria viridis)
# How it was run: as §1
# [16] = system: oval-leafed pondweed; test: Test Example 1: herbicidal activity, application before weed generation under submerged conditions (Table 16, symbol C); format: in vivo, oval-leafed pondweed (Monochoria vaginalis)
# How it was run: as §4
# [17] = system: lambsquarters; test: Test Example 5: herbicidal effect by foliage application, plastic box (Table 20, symbol O); format: in vivo, lambsquarters (Chenopodium album); details: foliage application
# How it was run: as §2
# [18] = system: barnyard grass; test: Test Example 5: herbicidal effect by foliage application, plastic box (Table 20, symbol H); format: in vivo, barnyard grass (Echinochloa crus-galli); details: foliage application
# How it was run: as §2
# [19] = system: chickweed; test: Test Example 5: herbicidal effect by foliage application, plastic box (Table 20, symbol P); format: in vivo, common chickweed (Stellaria media); details: foliage application
# How it was run: as §2
# [20] = system: blackgrass; test: Test Example 4: herbicidal effect by soil treatment (Table 19, symbol J); format: in vivo, blackgrass (Alopecurus myosuroides)
# How it was run: as §1
# [21] = system: Chinese sprangletop; test: Test Example 3: herbicidal effect by foliage application, Wagner pot (Table 18, symbol D); format: in vivo, chinese sprangletop (Leptochloa chinensis)
# How it was run: as §3
# [22] = system: windgrass; test: Test Example 5: herbicidal effect by foliage application, plastic box (Table 20, symbol L); format: in vivo, windgrass (Apera spica-venti); details: foliage application
# How it was run: as §2
# [23] = system: wild oat; test: Test Example 5: herbicidal effect by foliage application, plastic box (Table 20, symbol I); format: in vivo, wild oat (Avena fatua); details: foliage application
# How it was run: as §2
# [24] = system: Japanese bulrush; test: Test Example 1: herbicidal activity, application before weed generation under submerged conditions (Table 16, symbol B); format: in vivo, Japanese bulrush (Schoenoplectus juncoides)
# How it was run: as §4
# [25] = system: chickweed; test: Test Example 4: herbicidal effect by soil treatment (Table 19, symbol P); format: in vivo, common chickweed (Stellaria media)
# How it was run: as §1
# [26] = system: southern crabgrass; test: Test Example 5: herbicidal effect by foliage application, plastic box (Table 20, symbol F); format: in vivo, southern crabgrass (Digitaria ciliaris); details: foliage application
# How it was run: as §2
# [27] = system: redroot pigweed; test: Test Example 4: herbicidal effect by soil treatment (Table 19, symbol N); format: in vivo, redroot pigweed (Amaranthus retroflexus)
# How it was run: as §1
# [28] = system: barnyard grass; test: Test Example 4: herbicidal effect by soil treatment (Table 19, symbol H); format: in vivo, barnyard grass (Echinochloa crus-galli)
# How it was run: as §1
# [29] = system: Italian ryegrass; test: Test Example 4: herbicidal effect by soil treatment (Table 19, symbol K); format: in vivo, Italian ryegrass (Lolium multiflorum)
# How it was run: as §1
# [30] = system: blackgrass; test: Test Example 5: herbicidal effect by foliage application, plastic box (Table 20, symbol J); format: in vivo, blackgrass (Alopecurus myosuroides); details: foliage application
# How it was run: as §2
# [31] = AAH 246 g/ha, three weeks after application
# [32] = 269 g/ha, evaluated three weeks after application
compound,measurement,setting,value
C=Cc1ccc(-c2sc3ccccc3c2-c2c(OC(=O)CCC)c(C)nn(C)c2=O)cc1 [1-128],"I: wild oat, herbicidal effect rating",[1]; AAH 246 g/ha,0 (Herbicidal rate of 5% or less (almost no effect))
same,"L: windgrass, herbicidal effect rating",[2]; AAH 246 g/ha,0 (Herbicidal rate of 5% or less (almost no effect))
same,"R: persian speedwell, herbicidal effect rating",[3]; AAH 246 g/ha,3 (Herbicidal rate of 40% or more and less than 70%)
same,"M: velvetleaf, herbicidal effect rating",[4]; AAH 246 g/ha,0 (Herbicidal rate of 5% or less (almost no effect))
same,"R: persian speedwell, herbicidal effect",[5]; [31],5 (Herbicidal rate of 90% or more (almost completely withered))
same,"herbicidal effect on H (barnyard grass), rating 0-5",[6]; 246 g/ha,4 (Herbicidal rate of 70% or more and less than 90%)
same,"N: redroot pigweed, herbicidal effect",[7]; [31],5 (Herbicidal rate of 90% or more (almost completely withered))
same,Herbicidal effect on A: late watergrass (grade 0-5),[8]; 246 g/ha applied herbicide,0 (Herbicidal rate of 5% or less (almost no effect))
same,"herbicidal effect on E (rice flat sedge), rating 0-5",[9]; 246 g/ha,3 (Herbicidal rate of 40% or more and less than 70%)
same,"G: green foxtail, herbicidal effect",[10]; [31],0 (Herbicidal rate of 5% or less (almost no effect))
same,"F: southern crabgrass, herbicidal effect rating",[11]; AAH 246 g/ha,0 (Herbicidal rate of 5% or less (almost no effect))
same,"O: lambsquarters, herbicidal effect rating",[12]; AAH 246 g/ha,0 (Herbicidal rate of 5% or less (almost no effect))
same,"K: Italian ryegrass, herbicidal effect",[13]; [31],4 (Herbicidal rate of 70% or more and less than 90%)
same,"M: velvetleaf, herbicidal effect",[14]; [31],4 (Herbicidal rate of 70% or more and less than 90%)
same,"G: green foxtail, herbicidal effect rating",[15]; AAH 246 g/ha,0 (Herbicidal rate of 5% or less (almost no effect))
same,Herbicidal effect on C: oval-leafed pondweed (grade 0-5),[16]; 246 g/ha applied herbicide,5 (Herbicidal rate of 90% or more (almost completely withered))
same,"O: lambsquarters, herbicidal effect",[17]; [31],4 (Herbicidal rate of 70% or more and less than 90%)
same,"H: barnyard grass, herbicidal effect",[18]; [31],1 (Herbicidal rate of 5% or more and less than 20%)
same,"P: chickweed, herbicidal effect",[19]; [31],5 (Herbicidal rate of 90% or more (almost completely withered))
same,"J: blackgrass, herbicidal effect rating",[20]; AAH 246 g/ha,0 (Herbicidal rate of 5% or less (almost no effect))
same,"herbicidal effect on D (Chinese sprangletop), rating 0-5",[21]; 246 g/ha,5 (Herbicidal rate of 90% or more (almost completely withered))
same,"L: windgrass, herbicidal effect",[22]; [31],4 (Herbicidal rate of 70% or more and less than 90%)
same,"I: wild oat, herbicidal effect",[23]; [31],1 (Herbicidal rate of 5% or more and less than 20%)
same,Herbicidal effect on B: Japanese bulrush (grade 0-5),[24]; 246 g/ha applied herbicide,5 (Herbicidal rate of 90% or more (almost completely withered))
same,"P: chickweed, herbicidal effect rating",[25]; AAH 246 g/ha,3 (Herbicidal rate of 40% or more and less than 70%)
same,"F: southern crabgrass, herbicidal effect",[26]; [31],0 (Herbicidal rate of 5% or less (almost no effect))
same,"N: redroot pigweed, herbicidal effect rating",[27]; AAH 246 g/ha,4 (Herbicidal rate of 70% or more and less than 90%)
same,"H: barnyard grass, herbicidal effect rating",[28]; AAH 246 g/ha,0 (Herbicidal rate of 5% or less (almost no effect))
same,"K: Italian ryegrass, herbicidal effect rating",[29]; AAH 246 g/ha,2 (Herbicidal rate of 20% or more and less than 40%)
same,"J: blackgrass, herbicidal effect",[30]; [31],3 (Herbicidal rate of 40% or more and less than 70%)
COCCOCOc1c(C)nn(C)c(=O)c1-c1c(-c2ccc(OCCSC)cc2)sc2ccc(F)cc12 [2-059],"herbicidal effect rating, I: wild oat",[1]; 269 g/ha,0 (Herbicidal rate of 5% or less (almost no effect))
same,"herbicidal effect rating, L: windgrass",[2]; 269 g/ha,4 (Herbicidal rate of 70% or more and less than 90%)
same,"herbicidal effect rating, R: persian speedwell",[3]; 269 g/ha,5 (Herbicidal rate of 90% or more (almost completely withered))
same,"herbicidal effect rating, M: velvetleaf",[4]; 269 g/ha,1 (Herbicidal rate of 5% or more and less than 20%)
same,herbicidal effect on R: persian speedwell,[5]; [32],5 (Herbicidal rate of 90% or more (almost completely withered))
same,"herbicidal effect on H (barnyard grass), rating 0-5",[6]; 269 g/ha,5 (Herbicidal rate of 90% or more (almost completely withered))
same,herbicidal effect on N: redroot pigweed,[7]; [32],5 (Herbicidal rate of 90% or more (almost completely withered))
same,Herbicidal effect on A: late watergrass (grade 0-5),[8]; 269 g/ha applied herbicide,3 (Herbicidal rate of 40% or more and less than 70%)
same,"herbicidal effect on E (rice flat sedge), rating 0-5",[9]; 269 g/ha,5 (Herbicidal rate of 90% or more (almost completely withered))
same,herbicidal effect on G: green foxtail,[10]; [32],5 (Herbicidal rate of 90% or more (almost completely withered))
same,"herbicidal effect rating, F: southern crabgrass",[11]; 269 g/ha,4 (Herbicidal rate of 70% or more and less than 90%)
same,"herbicidal effect rating, O: lambsquarters",[12]; 269 g/ha,5 (Herbicidal rate of 90% or more (almost completely withered))
same,herbicidal effect on K: Italian ryegrass,[13]; [32],5 (Herbicidal rate of 90% or more (almost completely withered))
same,herbicidal effect on M: velvetleaf,[14]; [32],5 (Herbicidal rate of 90% or more (almost completely withered))
same,"herbicidal effect rating, G: green foxtail",[15]; 269 g/ha,5 (Herbicidal rate of 90% or more (almost completely withered))
same,Herbicidal effect on C: oval-leafed pondweed (grade 0-5),[16]; 269 g/ha applied herbicide,4 (Herbicidal rate of 70% or more and less than 90%)
same,herbicidal effect on O: lambsquarters,[17]; [32],5 (Herbicidal rate of 90% or more (almost completely withered))
same,herbicidal effect on H: barnyard grass,[18]; [32],5 (Herbicidal rate of 90% or more (almost completely withered))
same,herbicidal effect on P: chickweed,[19]; [32],5 (Herbicidal rate of 90% or more (almost completely withered))
same,"herbicidal effect rating, J: blackgrass",[20]; 269 g/ha,0 (Herbicidal rate of 5% or less (almost no effect))
same,"herbicidal effect on D (Chinese sprangletop), rating 0-5",[21]; 269 g/ha,5 (Herbicidal rate of 90% or more (almost completely withered))
same,herbicidal effect on L: windgrass,[22]; [32],5 (Herbicidal rate of 90% or more (almost completely withered))
same,herbicidal effect on I: wild oat,[23]; [32],4 (Herbicidal rate of 70% or more and less than 90%)
same,Herbicidal effect on B: Japanese bulrush (grade 0-5),[24]; 269 g/ha applied herbicide,3 (Herbicidal rate of 40% or more and less than 70%)
same,"herbicidal effect rating, P: chickweed",[25]; 269 g/ha,4 (Herbicidal rate of 70% or more and less than 90%)
same,herbicidal effect on F: southern crabgrass,[26]; [32],5 (Herbicidal rate of 90% or more (almost completely withered))
same,"herbicidal effect rating, N: redroot pigweed",[27]; 269 g/ha,5 (Herbicidal rate of 90% or more (almost completely withered))
same,"herbicidal effect rating, H: barnyard grass",[28]; 269 g/ha,1 (Herbicidal rate of 5% or more and less than 20%)
same,"herbicidal effect rating, K: Italian ryegrass",[29]; 269 g/ha,4 (Herbicidal rate of 70% or more and less than 90%)
same,herbicidal effect on J: blackgrass,[30]; [32],5 (Herbicidal rate of 90% or more (almost completely withered))
